Data taken from patent US20050019923A1, “Dendrimers for use in targeted delivery” (priority 2001, published 2005).

System: A431 cell line
Assay: In vitro cytotoxicity assay (MTT)
Assay type: cell-based, human
Conditions: 4 h exposure, 72 h incubation
Method: A human epidermoid carcinoma cell line (A431, ATCC CRL-1555) was maintained in Dulbecco's minimum essential medium (DMEM) supplemented with 10% foetal calf serum (FCS) and 2 mM glutamine (GibcoBRL, UK) at 10% CO2 and 37° C.
Polypropylenimine dendrimer/dendrimer derivative formulation cytotoxicity was assessed by the measurement of the IC50 in a standard MTT (3-[4,5-dimethylthiazol-2-yl]-2,5-diphenyltetrazolium bromide thiazolyl blue—indicator dye) assay. Briefly, 96 well microtitre plates were seeded with 5000 cells per well and incubated for 24 hrs. Dilutions of the dendrimer/dendrimer—DNA formulations (100 μl) in tissue culture medium (Opti-Mem) were incubated with the cells for 4 h. The samples were then replaced with fresh DMEM daily and incubated for 72 h. After this period the indicator dye (50 μl, 50 mg ml^−1) was added to each well and incubated with the cells for 4 h in the dark. The medium and indicator dye were then removed and the cells lysed with dimethylsulphoxide (200 μl). After addition of Sorensen's glycine buffer (25 μl) the absorption was measured at 570 nm. Values were expressed as a percentage of the control to which no vesicles were added.

`CCCCCCCC/C=C\CCCCCCCC(=O)OCC(C[N+](C)(C)C)OC(=O)CCCCCCC/C=C\CCCCCCCC.COS(=O)(=O)[O-]` (stereo not shown) [DOTAP, N-[1-(2,3-dioleoyloxy)propyl]-N,N,N-trimethylammonium methylsulphate] was tested, and the “IC50, in vitro cytotoxicity” value was 62 µg/mL.
